For this test, the system named is HIV-IIIb. In words: Antiviral assay in MT4 cells. Type of test: cell-based. As to conditions: Human immunodeficiency virus 1, MT4, 120 h; MT-4 cells mixed with HIV-IIIb at m.o.i. 0.003; 5 days at 37° C.; CellTiter-Glo luminescence; 50% decrease in signal, a measure of HIV-1 replication. The protocol: Antiviral Assay in MT4 Cells For the antiviral assay, 40 μL of a concentration required to achieve a final effective 1× test concentration of 3-fold serially diluted compound in culture medium with 10% FBS was added to each well of a 384-well plate (10 concentrations) in quadruplicate. MT-4 cells were next mixed with HIV-IIIb at an m.o.i of 0.003 for 1 hour, after which time 35 μL of virus/cell mixture (2000 cells) was immediately added to each well containing 40 μL of diluted compound. The plates were then incubated at 37° C. for 5 days. After 5 days of incubation, 25 μl of 2× concentrated CellTiter-Glom Reagent (catalog #G7571, Promega Biosciences, Inc., Madison, WI) was added to each well containing MT-4 cells. Cell lysis was carried out by incubating at room temperature for 10 min and then chemiluminescence was read.
In general terms: In ATP-based viability assays light output follows the ATP content of the culture.

What is called EC50 is the concentration needed to bring the measured effect to its halfway point. The compound `O=C(Cn1nc(C(F)F)c2c1C(F)(F)CCC2(F)F)N[C@@H](Cc1cc(F)cc(F)c1)c1nc2ncsc2cc1-c1ccc(F)cc1` [Compound 16, (S)-2-(3-(difluoromethyl)-4,4,7,7-tetrafluoro-4,5,6,7-tetrahydro-1H-indazol-1-yl)-N-(2-(3,5-difluorophenyl)-1-(6-(4-fluorophenyl)thiazolo[4,5-b]pyridin-5-yl)ethyl)acetamide] returned a half-maximal effective concentration (EC50) of 1020 nM.
Then `CCS(=O)(=O)Nc1nn(C)c2c(-c3cc4sc(NCC(C)(C)O)nc4nc3[C@H](Cc3cc(F)cc(F)c3)NC(=O)Cn3nc(C(F)F)c4c3C(F)(F)[C@@H]3C[C@H]43)cccc12` [Compound 61, 2-((3bS,4aR)-3-(difluoromethyl)-5,5-difluoro-3b,4,4a,5-tetrahydro-1H-cyclopropa[3,4]cyclopenta[1,2-c]pyrazol-1-yl)-N—((S)-2-(3,5-difluorophenyl)-1-(6-(3-(ethylsulfonamido)-1-methyl-1H-indazol-7-yl)-2-((2-hydroxy-2-methylpropyl)amino)thiazolo[4,5-b]pyridin-5-yl)ethyl)acetamide], with 10 nM.
Then `Cc1nc2nc([C@H](Cc3cc(F)cc(F)c3)NC(=O)Cn3nc(C(F)F)c4c3C(F)(F)[C@@H]3C[C@H]43)c(-c3ccc(Cl)c4c(NS(C)(=O)=O)nn(C)c34)cc2[nH]1` [Example 99, N—((S)-1-(6-(4-chloro-1-methyl-3-(methylsulfonamido)-1H-indazol-7-yl)-2-methyl-1H-imidazo[4,5-b]pyridin-5-yl)-2-(3,5-difluorophenyl)ethyl)-2-((3bS,4aR)-3-(difluoromethyl)-5,5-difluoro-3b,4,4a,5-tetrahydro-1H-cyclopropa[3,4]cyclopenta[1,2-c]pyrazol-1-yl)acetamide], with 1.6 nM; and `O=C(Cn1nc(C(F)F)c2c1C(F)(F)CCC2(F)F)N[C@H](Cc1cc(F)cc(F)c1)c1nc2ncsc2cc1-c1ccc(F)cc1` [Compound 17, (R)-2-(3-(difluoromethyl)-4,4,7,7-tetrafluoro-4,5,6,7-tetrahydro-1H-indazol-1-yl)-N-(2-(3,5-difluorophenyl)-1-(6-(4-fluorophenyl)thiazolo[4,5-b]pyridin-5-yl)ethyl)acetamide], with 7990 nM.
Then `CC(CN(C)C)Nc1nc2nc([C@H](Cc3cc(F)cc(F)c3)NC(=O)Cn3nc(C(F)(F)F)c4c3C(F)(F)[C@@H]3C[C@H]43)c(-c3cccc4c(NS(C)(=O)=O)nn(C)c34)cc2s1` (stereo partly drawn) [Example 67, 2-((3bS,4aR)-5,5-difluoro-3-(trifluoromethyl)-3b,4,4a,5-tetrahydro-1H-cyclopropa[3,4]cyclopenta[1,2-c]pyrazol-1-yl)-N-((1S)-2-(3,5-difluorophenyl)-1-(2-((1-(dimethylamino)propan-2-yl)amino)-6-(1-methyl-3-(methylsulfonamido)-1H-indazol-7-yl)thiazolo[4,5-b]pyridin-5-yl)ethyl)acetamide], with 27.3 nM.
In the case of `Cn1nc(NS(C)(=O)=O)c2cccc(-c3cc4sc(NCC(C)(C)O)nc4nc3[C@H](Cc3cc(F)cc(F)c3)NC(=O)Cn3nc(C(F)F)c4c3C(F)(F)[C@@H]3C[C@H]43)c21` [Compound 55, 2-((3bS,4aR)-3-(difluoromethyl)-5,5-difluoro-3b,4,4a,5-tetrahydro-1H-cyclopropa[3,4]cyclopenta[1,2-c]pyrazol-1-yl)-N—((S)-2-(3,5-difluorophenyl)-1-(2-((2-hydroxy-2-methylpropyl)amino)-6-(1-methyl-3-(methylsulfonamido)-1H-indazol-7-yl)thiazolo[4,5-b]pyridin-5-yl)ethyl)acetamide], a half-maximal effect (EC50) was put at 13.5 nM. This EC50 is about 2-fold lower than that of the compound before.
Then `Cn1nc(NS(C)(=O)=O)c2cccc(-c3cc4sc(N5CC(C)(O)C5)nc4nc3[C@H](Cc3cc(F)cc(F)c3)NC(=O)Cn3nc(C(F)(F)F)c4c3C(F)(F)[C@@H]3C[C@H]43)c21` [Compound 53, 2-((3bS,4aR)-5,5-difluoro-3-(trifluoromethyl)-3b,4,4a,5-tetrahydro-1H-cyclopropa[3,4]cyclopenta[1,2-c]pyrazol-1-yl)-N—((S)-2-(3,5-difluorophenyl)-1-(2-(3-hydroxy-3-methylazetidin-1-yl)-6-(1-methyl-3-(methylsulfonamido)-1H-indazol-7-yl)thiazolo[4,5-b]pyridin-5-yl)ethyl)acetamide], with 20.4 nM; and `CC1(O)CN(c2nc3cc(-c4ccc(F)c(C(N)=O)c4)c([C@H](Cc4cc(F)cc(F)c4)NC(=O)Cn4nc(C(F)(F)F)c5c4C(F)(F)[C@@H]4C[C@H]54)nc3o2)C1` [Example 111, 5-(5-((S)-1-(2-((3bS,4aR)-5,5-difluoro-3-(trifluoromethyl)-3b,4,4a,5-tetrahydro-1H-cyclopropa[3,4]cyclopenta[1,2-c]pyrazol-1-yl)acetamido)-2-(3,5-difluorophenyl)ethyl)-2-(3-hydroxy-3-methylazetidin-1-yl)oxazolo[5,4-b]pyridin-6-yl)-2-fluorobenzamide], with 156 nM; and `NC(=O)c1cc(-c2cc3sc(N4C[C@@H]5C[C@H]4CN5C4COC4)nc3nc2[C@H](Cc2cc(F)cc(F)c2)NC(=O)Cn2nc(C(F)(F)F)c3c2C(F)(F)[C@@H]2C[C@H]32)ccc1F` [Compound 27, 5-(5-((S)-1-(2-((3bS,4aR)-5,5-difluoro-3-(trifluoromethyl)-3b,4,4a,5-tetrahydro-1H-cyclopropa[3,4]cyclopenta[1,2-c]pyrazol-1-yl)acetamido)-2-(3,5-difluorophenyl)ethyl)-2-((1S,4S)-5-(oxetan-3-yl)-2,5-diazabicyclo[2.2.1]heptan-2-yl)thiazolo[4,5-b]pyridin-6-yl)-2-fluorobenzamide], with 52.3 nM.
Then `NC(=O)c1cc(-c2cc3sc(N4CCN(c5ccc(Cl)cc5)CC4)nc3nc2[C@H](Cc2cc(F)cc(F)c2)NC(=O)Cn2nc(C(F)(F)F)c3c2C(F)(F)[C@@H]2C[C@H]32)ccc1F` [Compound 140, 5-(2-(4-(4-chlorophenyl)piperazin-1-yl)-5-((S)-1-(2-((3bS,4aR)-5,5-difluoro-3-(trifluoromethyl)-3b,4,4a,5-tetrahydro-1H-cyclopropa[3,4]cyclopenta[1,2-c]pyrazol-1-yl)acetamido)-2-(3,5-difluorophenyl)ethyl)thiazolo[4,5-b]pyridin-6-yl)-2-fluorobenzamide], with 1370 nM; and `Cn1nc(NS(C)(=O)=O)c2cccc(-c3cc4scnc4nc3C(Cc3cc(F)cc(F)c3)NC(=O)Cn3nc(C(F)(F)F)c4c3C(F)(F)[C@@H]3C[C@H]43)c21` (stereo partly drawn) [Compound 129, 2-((3bS,4aR)-5,5-difluoro-3-(trifluoromethyl)-3b,4,4a,5-tetrahydro-1H-cyclopropa[3,4]cyclopenta[1,2-c]pyrazol-1-yl)-N-(2-(3,5-difluorophenyl)-1-(6-(1-methyl-3-(methylsulfonamido)-1H-indazol-7-yl)thiazolo[4,5-b]pyridin-5-yl)ethyl)acetamide], with 16.9 nM.
Then `CC1CC1Nc1nc2nc([C@H](Cc3cc(F)cc(F)c3)NC(=O)Cn3nc(C(F)(F)F)c4c3C(F)(F)[C@@H]3C[C@H]43)c(-c3cccc4c(NS(C)(=O)=O)nn(C)c34)cc2s1` (stereo partly drawn) [Example 78, 2-((3bS,4aR)-5,5-difluoro-3-(trifluoromethyl)-3b,4,4a,5-tetrahydro-1H-cyclopropa[3,4]cyclopenta[1,2-c]pyrazol-1-yl)-N-((1S)-2-(3,5-difluorophenyl)-1-(6-(1-methyl-3-(methylsulfonamido)-1H-indazol-7-yl)-2-((2-methylcyclopropyl)amino)thiazolo[4,5-b]pyridin-5-yl)ethyl)acetamide], with 42.7 nM.

Values taken from US12077537B2 (Gilead Sciences, Inc., priority 2020, dated 2024).
